The values that follow come from patent US20170095467A1, “ENCAPSULATION OF ISOQUINOLINE ALKALOIDS” (Rhizofeed, LLC, priority 2015, published 2017).

As a reminder, the LD50 is the dose expected to kill half of the subjects tested.

Data set [1] in a line: Photosensitivity of sanguinarine and chelerythrine in crude rhizome extract under short-wave UV light (HPLC). It is filed as physicochemical. As to the method:
2 mL of each sample was then collected. All dilutions were filtered through 0.22 um syringe filter (Restek) and were stored in a dark environment held at −4° C. Mobile phases were prepared using 40% acetonitrile, 59% distilled water, and 1% acetic acid. The flow rate was 1.0000 mL/minute, and a pressure of approximately 2161.06 psi was maintained. UV visible spectroscopy was used to determine the optimum wavelength of detection, and detection was carried out at 330 nm. Preliminary studies determined that isoquinoline alkaloids are […] under UV light. In a purified state, it has been established that Sanguinarine undergoes photochemical conversion to oxysanguinarine. […] As depicted in Table 7 and FIG. 5, exposure to light or UV radiation over any period of time has a detrimental effect on the encapsulation yield. According to certain embodiments, exposure to light and UV radiation can be minimized by storing the alkaloids in dark conditions until the encapsulation process is complete or the finished product is used.

Data set [2] can be described thus: Heat degradation of alkaloids in crude extract / extraction with heat. The format is physicochemical. As to the method: Two preliminary studies involving heat were conducted. In one study, the raw bloodroot powder was placed on a heating element for 24 hours while the alkaloid was extracted. […] In a second study, a crude extract of alkaloids was placed on a heating element at 67° C. to test for degradation.

Data set [3] concerns rats. The following applies: rat, in vivo; cited from earlier work.
Data set [4] can be described thus: Encapsulate degradation by heat (oven / pelletization-like conditions). The format is physicochemical. The note with it: 24 h. As to the method:
(§1) The optimized encapsulation method disclosed herein was employed to produce alkaloid loaded inulin beads. These beads were subjected to both heat and light to determine the protective properties conferred by the microencapsulation process.
To determine the protection the microencapsulation process provides against heat, 1 g of inulin beads was placed in a Fischer Scientific model 605G Isotemp Oven for 24 hours at 96° C. A comparative example of sanguinarine standard that was not encapsulated was also placed in the oven.
A second study was also performed to understand the effect pelletization could have on the microcapsules. In the second study, 1 g of inulin beads was placed in a loosely covered beaker and subjected to 121° C. heat and 16 psi conditions for 20 minutes. These values are much higher in magnitude and duration than will be endured in the pelletization process for animal feed. As depicted in Table 10, the microcapsules decreased degradation by a factor of 1.62.

The nature of data set [5]: Encapsulate degradation by UV light. The format is physicochemical.
Description: as §1
To determine the light protection provided by the microencapsulation process, 1 g of inulin beads was exposed to a UV source (115V Arthur H. Thomas Co. Lamp).

[6] abbreviates: Crude Extract Exposed to UV Light (24 Hours).
Setting [7] is: Crude Extract Exposed to UV Light (48 Hours).
Setting [8] is: Crude Extract Exposed to UV Light (72 Hours).
Where [9] appears, read: Crude Extract Exposed to UV Light (144 Hours).
[10] abbreviates: Standard Extraction (No Heat or Light Exposure).
The mark [11] stands for this setting: Crude Extract Exposed to Heat (24 Hours).

Consider `COc1ccc2c(c[n+](C)c3c4cc5c(cc4ccc23)OCO5)c1OC` [Chelerythrine, chelerythrine], for which the “Percentage of alkaloid in Extract” value was determined as 1.50% in data set [1] (setting [6]); 1.46% in data set [1] (setting [7]); 1.45% in data set [1] (setting [8]); 1.30% in data set [1] (setting [9]); 2.95% in data set [1] (setting [10]); 1.81% in data set [2] (setting [11]). For the same compound, the “Percentage of alkaloid in Extract” value in data set [2] (Extracted with Heat (24 Hours)) came out at 2.43%; in data set [2] (setting [10]), 2.95%.

For `C[n+]1cc2c3c(ccc2c2ccc4cc5c(cc4c21)OCO5)OCO3` [Sanguinarine, sanguinarine], the “Percentage of alkaloid in Extract” value in data set [1] (setting [6]) is given as 2.61%; in data set [1] (setting [7]), 2.41%; in data set [1] (setting [8]), 2.35%; in data set [1] (setting [9]), 1.26%; in data set [1] (setting [10]), 5.21%; in data set [2] (setting [11]), 4.28%. Further, the “Percentage of alkaloid in Extract” value was determined as 3.41% in data set [2] (Extracted with Heat (24 Hours)) and 5.21% in data set [2] (setting [10]). In addition, the median lethal dose (LD50) in data set [3] is given as 1658 mg/kg.

As for `C[n+]1cc2c3c(ccc2c2ccc4cc5c(cc4c21)OCO5)OCO3` [Standard, sanguinarine chloride], in data set [4] (96° C.), the “Percent Degradation” value is listed as 25.40%, the “Post-Exposure Alkaloid concentration” value was 0.229 mg/mL and the “Pre-exposure Alkaloid concentration” value stood at 0.307 mg/mL. In addition, in data set [4] (121° C., 16 psi, Sang. Only), the “Percent Degradation” value is 63.30%, the “Post-Exposure Alkaloid concentration” value is “.07306 (Sang mg/mL” and the “Pre-exposure Alkaloid concentration” value is on record as “.2002 (Sang. mg/mL”. Besides, in data set [5], the “Percent Degradation” value is listed as 49.80%, the “Post-Exposure Alkaloid conc.” value came out at 0.154 mg/mL and the “Pre-exposure Alkaloid conc.” value is listed as 0.307 mg/mL.
